The subject of the test is MV-4-11 cells. Put plainly: Gene expression microarray analysis (Affymetrix PrimeView) and GSEA. The format is cell-based, human. Further details: RFU PODN (11730768_x_at) / Fold change /veh PODN (11730768_x_at) / RFU LINC00158 (11744669_a_at) / Fold change /veh LINC00158 (11744669_a_at) / RFU DUSP10 (11751237_a_at) / Fold change /veh DUSP10 (11751237_a_at) / RFU ID3 (11757404_x_at) / Fold change /veh ID3 (11757404_x_at) / RFU PLEKHG5 (11737974_s_at) / Fold change /veh PLEKHG5 (11737974_s_at) / RFU LRRC4B (11730491_at) / Fold change /veh LRRC4B (11730491_at) / RFU GIMAP4 (11747438_a_at) / Fold change /veh GIMAP4 (11747438_a_at) / RFU KRT8 (11758183_x_at) / Fold change /veh KRT8 (11758183_x_at) / RFU CNN1 (11734310_a_at) / Fold change /veh CNN1 (11734310_a_at) / RFU VPS37D (11726825_at) / Fold change /veh VPS37D (11726825_at) / RFU C10orf10 (11716522_x_at) / Fold change /veh C10orf10 (11716522_x_at) / RFU KIR2DL2 /// KIR2DL4 /// KIR2DL5A /// KIR2DL5B /// KIR2DS1 /// KIR2DS2 /// KIR2DS3 /// KIR2DS4 /// KIR3DL3 /// KIR3DL3 /// KIR3DS1 (11738374_at) / Fold change /veh KIR2DL2 /// KIR2DL4 /// KIR2DL5A /// KIR2DL5B /// KIR2DS1 /// KIR2DS2 /// KIR2DS3 /// KIR2DS4 /// KIR3DL3 /// KIR3DL3 /// KIR3DS1 (11738374_at) / RFU C1QL1 (11718748_at) / Fold change /veh C1QL1 (11718748_at) / RFU TMPRSS4 (11747572_a_at) / Fold change /veh TMPRSS4 (11747572_a_at) / RFU HAMP (11756126_x_at) / Fold change /veh HAMP (11756126_x_at) / RFU RNFT2 (11725882_a_at) / Fold change /veh RNFT2 (11725882_a_at) / RFU NR4A2 (11747474_a_at) / Fold change /veh NR4A2 (11747474_a_at) / RFU ABCC12 (11746883_a_at) / Fold change /veh ABCC12 (11746883_a_at) / RFU TMEM136 (11760407_x_at) / Fold change /veh TMEM136 (11760407_x_at) / RFU CLDN22 /// WWC2 (11732394_at) / Fold change /veh CLDN22 /// WWC2 (11732394_at) / RFU HLA-DPB1 (11760878_x_at) / Fold change /veh HLA-DPB1 (11760878_x_at) / RFU SPINT1 (11716480_a_at) / Fold change /veh SPINT1 (11716480_a_at) / RFU GAP43 (11754022_s_at) / Fold change /veh GAP43 (11754022_s_at) / RFU A4GNT (11735810_at) / Fold change /veh A4GNT (11735810_at) / RFU PRB3 (11715151_x_at) / Fold change /veh PRB3 (11715151_x_at) / RFU TUBB4B (11761932_at) / Fold change /veh TUBB4B (11761932_at) / RFU CAPN14 (11732068_a_at) / Fold change /veh CAPN14 (11732068_a_at) / RFU TMCC2 (11721928_a_at) / Fold change /veh TMCC2 (11721928_a_at) / RFU IRGQ (11745062_a_at) / Fold change /veh IRGQ (11745062_a_at) / RFU FAM174B (11720279_a_at) / Fold change /veh FAM174B (11720279_a_at) / RFU TMPRSS4 (11748680_a_at) / Fold change /veh TMPRSS4 (11748680_a_at) / RFU FAM212B (11763350_a_at) / Fold change /veh FAM212B (11763350_a_at) / RFU PLEKHG5 (11743358_a_at) / Fold change /veh PLEKHG5 (11743358_a_at) / RFU ZSCAN30 (11745921_a_at) / Fold change /veh ZSCAN30 (11745921_a_at) / RFU CMKLR1 (11741424_a_at) / Fold change /veh CMKLR1 (11741424_a_at) / RFU LOC101060620 /// MAPK8IP1 (11723275_at) / Fold change /veh LOC101060620 /// MAPK8IP1 (11723275_at) / RFU SPTSSB (11747773_x_at) / Fold change /veh SPTSSB (11747773_x_at) / RFU PRSS12 (11739890_at) / Fold change /veh PRSS12 (11739890_at) / RFU BIN1 (11741810_x_at) / Fold change /veh BIN1 (11741810_x_at) / RFU WNT11 (11732464_a_at) / Fold change /veh WNT11 (11732464_a_at) / RFU C10orf10 (11716521_a_at) / Fold change /veh C10orf10 (11716521_a_at) / RFU C5orf56 (11738089_at) / Fold change /veh C5orf56 (11738089_at) / RFU CYB561 (11721691_x_at) / Fold change /veh CYB561 (11721691_x_at) / RFU ANKRD19P (11752326_a_at) / Fold change /veh ANKRD19P (11752326_a_at) / RFU OR2T12 /// OR2T33 /// OR2T8 (11738714_s_at) / Fold change /veh OR2T12 /// OR2T33 /// OR2T8 (11738714_s_at) / RFU VCAN (11748164_a_at) / Fold change /veh VCAN (11748164_a_at) / RFU JSRP1 (11732532_at) / Fold change /veh JSRP1 (11732532_at) / RFU KRTAP10-11 (11738290_x_at) / Fold change /veh KRTAP10-11 (11738290_x_at) / RFU MYO3A (11730013_a_at) / Fold change /veh MYO3A (11730013_a_at) / RFU EBF3 (11725865_a_at) / Fold change /veh EBF3 (11725865_a_at) / RFU CAMK2N1 (11719241_x_at) / Fold change /veh CAMK2N1 (11719241_x_at) / RFU C5orf56 (11738088_a_at) / Fold change /veh C5orf56 (11738088_a_at) / RFU OLFML3 (11715873_a_at) / Fold change /veh OLFML3 (11715873_a_at) / RFU LOC100653217 /// NTM (11731650_a_at) / Fold change /veh LOC100653217 /// NTM (11731650_a_at) / RFU MAPK11 (11762145_a_at) / Fold change /veh MAPK11 (11762145_a_at) / RFU FIZ1 (11724087_x_at) / Fold change /veh FIZ1 (11724087_x_at) / RFU OASL (11726364_x_at) / Fold change /veh OASL (11726364_x_at) / RFU SOX15 (11748057_x_at) / Fold change /veh SOX15 (11748057_x_at) / RFU CD79A (11719716_a_at) / Fold change /veh CD79A (11719716_a_at) / RFU HIST1H1D (11736915_at) / Fold change /veh HIST1H1D (11736915_at) / RFU CASKIN2 (11723855_a_at) / Fold change /veh CASKIN2 (11723855_a_at) / RFU LOC730098 (11760151_x_at) / Fold change /veh LOC730098 (11760151_x_at) / RFU OR4N2 (11742367_at) / Fold change /veh OR4N2 (11742367_at) / RFU PRRT2 (11749266_a_at) / Fold change /veh PRRT2 (11749266_a_at) / RFU SNX32 (11753110_a_at) / Fold change /veh SNX32 (11753110_a_at) / RFU CDHR5 (11726645_a_at) / Fold change /veh CDHR5 (11726645_a_at) / RFU RCAN1 (11760418_a_at) / Fold change /veh RCAN1 (11760418_a_at) / RFU FAM167A (11723789_a_at) / Fold change /veh FAM167A (11723789_a_at) / RFU FAM26E (11764081_at) / Fold change /veh FAM26E (11764081_at) / RFU ISYNA1 (11749810_s_at) / Fold change /veh ISYNA1 (11749810_s_at) / RFU ACY1 (11761880_at) / Fold change /veh ACY1 (11761880_at) / RFU 11764098_at / Fold change /veh 11764098_at / RFU SAMD14 (11745864_x_at) / Fold change /veh SAMD14 (11745864_x_at) / RFU NPB (11741838_a_at) / Fold change /veh NPB (11741838_a_at) / RFU TMPRSS6 (11731388_a_at) / Fold change /veh TMPRSS6 (11731388_a_at) / RFU KRTAP10-2 (11738614_at) / Fold change /veh KRTAP10-2 (11738614_at) / RFU ARHGAP8 /// PRR5-ARHGAP8 (11727945_x_at) / Fold change /veh ARHGAP8 /// PRR5-ARHGAP8 (11727945_x_at) / RFU KRTAP5-7 /// NADSYN1 (11734609_at) / Fold change /veh KRTAP5-7 /// NADSYN1 (11734609_at) / RFU RASL12 (11751679_a_at) / Fold change /veh RASL12 (11751679_a_at) / RFU CDKN2B (11736163_a_at) / Fold change /veh CDKN2B (11736163_a_at) / RFU PRF1 (11729649_at) / Fold change /veh PRF1 (11729649_at) / RFU, ZNF638 /// ZNF638-IT1 / Fold change vs veh, ZNF638 /// ZNF638-IT1 / RFU, PANK3 / Fold change vs veh, PANK3 / RFU, SH3YL1 / Fold change vs veh, SH3YL1 / RFU, ZEB2 / Fold change vs veh, ZEB2 / RFU, NRIP1 / Fold change vs veh, NRIP1 / RFU, PTTG1IP / Fold change vs veh, PTTG1IP / RFU, CAPN2 / Fold change vs veh, CAPN2 / RFU, MED14 / Fold change vs veh, MED14 / RFU, SNORA58 / Fold change vs veh, SNORA58 / RFU, C1orf63 / Fold change vs veh, C1orf63 / RFU, LRRFIP1 / Fold change vs veh, LRRFIP1 / RFU, NDUFAF7 / Fold change vs veh, NDUFAF7 / RFU, SLC12A2 / Fold change vs veh, SLC12A2 / RFU, IBTK / Fold change vs veh, IBTK / RFU, ESF1 / Fold change vs veh, ESF1 / Fold change vs veh, TMEM50B / RFU, TAOK1 / Fold change vs veh, TAOK1 / RFU, ACBD3 / Fold change vs veh, ACBD3 / RFU, TMA16 / Fold change vs veh, TMA16 / RFU, RWDD3 / Fold change vs veh, RWDD3 / RFU, BCAT1 / Fold change vs veh, BCAT1 / RFU, EDEM3 / Fold change vs veh, EDEM3 / RFU, TMEM33 / Fold change vs veh, TMEM33 / RFU, WDR75 / Fold change vs veh, WDR75 / RFU, AHCTF1 / Fold change vs veh, AHCTF1 / RFU, TFRC / Fold change vs veh, TFRC / RFU, ZDHHC17 / Fold change vs veh, ZDHHC17 / RFU, NOM1 / Fold change vs veh, NOM1 / RFU, ARL8B / Fold change vs veh, ARL8B / RFU, ZBTB11 / Fold change vs veh, ZBTB11 / RFU, TAMM41 / Fold change vs veh, TAMM41 / RFU, KIAA1704 /// LOC100996395 / Fold change vs veh, KIAA1704 /// LOC100996395 / RFU, ING1 / Fold change vs veh, ING1 / RFU, TRMT61B / Fold change vs veh, TRMT61B / RFU, FUBP3 / Fold change vs veh, FUBP3 / RFU, TP53 / Fold change vs veh, TP53 / RFU, TNKS2 / Fold change vs veh, TNKS2 / RFU, ZFP14 / Fold change vs veh, ZFP14 / RFU, ACTR2 / Fold change vs veh, ACTR2 / RFU, PPP3R1 / Fold change vs veh, PPP3R1 / RFU, PIK3R1 / Fold change vs veh, PIK3R1 / RFU, HNRNPA1 / Fold change vs veh, HNRNPA1 / RFU, RNF170 / Fold change vs veh, RNF170 / RFU, ZNF28 / Fold change vs veh, ZNF28 / RFU, RNGTT / Fold change vs veh, RNGTT / RFU, OGT / Fold change vs veh, OGT / RFU, BRD1 / Fold change vs veh, BRD1 / RFU, MARS / Fold change vs veh, MARS / RFU, ZNF655 / Fold change vs veh, ZNF655 / RFU, FAHD1 / Fold change vs veh, FAHD1 / RFU, BDP1 / Fold change vs veh, BDP1 / RFU, LRRCC1 / Fold change vs veh, LRRCC1 / RFU, ARID1A / Fold change vs veh, ARID1A / RFU, ZNF146 / Fold change vs veh, ZNF146 / RFU, ZNF330 / Fold change vs veh, ZNF330 / RFU, GPN3 / Fold change vs veh, GPN3 / RFU, C9orf123 / Fold change vs veh, C9orf123 / RFU, N4BP2L2 / Fold change vs veh, N4BP2L2 / RFU, ARFIP1 / Fold change vs veh, ARFIP1 / RFU, FAM179B / Fold change vs veh, FAM179B / RFU, BCL10 / Fold change vs veh, BCL10 / RFU, UHRF1BP1L / Fold change vs veh, UHRF1BP1L / RFU, BET1 / Fold change vs veh, BET1 / RFU, CNOT2 / Fold change vs veh, CNOT2 / RFU, ZNF268 / Fold change vs veh, ZNF268 / Fold change vs veh, ZNF507 / RFU, DGCR2 / Fold change vs veh, DGCR2 / RFU, WDSUB1 / Fold change vs veh, WDSUB1 / Fold change vs veh, HSP90B1 /// MIR3652 / RFU, ADSS / Fold change vs veh, ADSS / RFU, GK / Fold change vs veh, GK / RFU, ZNF148 / Fold change vs veh, ZNF148 / RFU, TAF9 / Fold change vs veh, TAF9 / RFU, SLC1A5 / Fold change vs veh, SLC1A5 / RFU, SLMO2 / Fold change vs veh, SLMO2 / RFU, ABCC4 / Fold change vs veh, ABCC4 / RFU, LOC101060439 /// RAP1B / Fold change vs veh, LOC101060439 /// RAP1B / RFU, RFX7 / Fold change vs veh, RFX7 / RFU, GTPBP10 / Fold change vs veh, GTPBP10 / RFU, CNEP1R1 / Fold change vs veh, CNEP1R1 / RFU, BIVM-ERCC5 /// ERCC5 / Fold change vs veh, BIVM-ERCC5 /// ERCC5 / RFU, ILF3 / Fold change vs veh, ILF3 / RFU 11762660_at / Fold change /veh 11762660_at / RFU VCAN (11757783_s_at) / Fold change /veh VCAN (11757783_s_at) / RFU DDX43 (11728927_at) / Fold change /veh DDX43 (11728927_at) / RFU KRT8 (11758188_x_at) / Fold change /veh KRT8 (11758188_x_at) / RFU NKD1 (11759106_at) / Fold change /veh NKD1 (11759106_at) / RFU SRD5A1 (11742802_a_at) / Fold change /veh SRD5A1 (11742802_a_at) / RFU TPSAB1 /// TPSB2 (11721975_s_at) / Fold change /veh TPSAB1 /// TPSB2 (11721975_s_at) / RFU GSTM3 (11746129_a_at) / Fold change /veh GSTM3 (11746129_a_at) / RFU IL23R (11737362_x_at) / Fold change /veh IL23R (11737362_x_at) / RFU TMEM51 (11727254_a_at) / Fold change /veh TMEM51 (11727254_a_at) / RFU PIWIL2 (11732686_x_at) / Fold change /veh PIWIL2 (11732686_x_at) / RFU ORM1 (11744905_x_at) / Fold change /veh ORM1 (11744905_x_at) / RFU CCDC152 (11743942_at) / Fold change /veh CCDC152 (11743942_at) / RFU ECM1 (11717891_a_at) / Fold change /veh ECM1 (11717891_a_at) / RFU IL23R (11748794_a_at) / Fold change /veh IL23R (11748794_a_at) / RFU TNFAIP8L3 (11732012_x_at) / Fold change /veh TNFAIP8L3 (11732012_x_at) / RFU MBOAT4 (11741988_at) / Fold change /veh MBOAT4 (11741988_at) / RFU 11764193_at / Fold change /veh 11764193_at / RFU TMEM53 (11763286_at) / Fold change /veh TMEM53 (11763286_at) / RFU MAGEB2 (11727129_at) / Fold change /veh MAGEB2 (11727129_at) / RFU TMEM200A (11744735_a_at) / Fold change /veh TMEM200A (11744735_a_at) / RFU CCDC152 (11751479_a_at) / Fold change /veh CCDC152 (11751479_a_at) / RFU FAM211A (11726209_a_at) / Fold change /veh FAM211A (11726209_a_at) / RFU RGS16 (11746705_a_at) / Fold change /veh RGS16 (11746705_a_at) / RFU VCAN (11755009_s_at) / Fold change /veh VCAN (11755009_s_at) / RFU RHOB (11743442_s_at) / Fold change /veh RHOB (11743442_s_at) / RFU RGS16 (11720943_a_at) / Fold change /veh RGS16 (11720943_a_at) / RFU RGS16 (11720944_at) / Fold change /veh RGS16 (11720944_at) / RFU, VPS4B / Fold change vs veh, VPS4B / RFU, CREB1 / Fold change vs veh, CREB1 / RFU, DNAJC13 / Fold change vs veh, DNAJC13 / RFU, GNAQ / Fold change vs veh, GNAQ / RFU, CDK5R1 / Fold change vs veh, CDK5R1 / RFU, ZRANB3 / Fold change vs veh, ZRANB3 / RFU, CUL4A / Fold change vs veh, CUL4A / RFU, CCNY / Fold change vs veh, CCNY / RFU, UFL1 / Fold change vs veh, UFL1 / RFU, COG3 / Fold change vs veh, COG3 / RFU, DIAPH2 / Fold change vs veh, DIAPH2 / RFU, SKA2 / Fold change vs veh, SKA2 / RFU, AFF3 / Fold change vs veh, AFF3 / RFU, LMF1 / Fold change vs veh, LMF1 / RFU, IPO11 / Fold change vs veh, IPO11 / RFU, DFFB / Fold change vs veh, DFFB / RFU, FOXP1 / Fold change vs veh, FOXP1 / RFU, CARD8 / Fold change vs veh, CARD8 / RFU, STRN3 / Fold change vs veh, STRN3 / RFU, ADK / Fold change vs veh, ADK / RFU, RASSF2 / Fold change vs veh, RASSF2 / RFU, WIPF1 / Fold change vs veh, WIPF1 / RFU, LARP1B / Fold change vs veh, LARP1B / RFU, RASA1 / Fold change vs veh, RASA1 / RFU, RB1 / Fold change vs veh, RB1 / RFU, PPFIA1 / Fold change vs veh, PPFIA1 / RFU, MAT2A / Fold change vs veh, MAT2A / RFU, CCT5 / Fold change vs veh, CCT5 / RFU, WDR92 / Fold change vs veh, WDR92 / RFU, CUX1 / Fold change vs veh, CUX1 / RFU, TTC7A / Fold change vs veh, TTC7A / RFU, TMEM135 / Fold change vs veh, TMEM135 / RFU, DEPTOR / Fold change vs veh, DEPTOR / RFU, CPM / Fold change vs veh, CPM / RFU, DNAJB6 / Fold change vs veh, DNAJB6 / RFU, CACNA2D3 / Fold change vs veh, CACNA2D3 / RFU, DTX4 / Fold change vs veh, DTX4 / RFU, TFCP2 / Fold change vs veh, TFCP2 / RFU, GMCL1 /// GMCL1P1 / Fold change vs veh, GMCL1 /// GMCL1P1 / RFU, AEBP2 / Fold change vs veh, AEBP2 / RFU, SNHG1 /// SNORD22 /// SNORD25 /// SNORD26 /// SNORD27 /// SNORD28 /// SNORD29 /// SNORD31 / Fold change vs veh, SNHG1 /// SNORD22 /// SNORD25 /// SNORD26 /// SNORD27 /// SNORD28 /// SNORD29 /// SNORD31 / Fold change (Aza/veh), C12orf56 (ProbeSet 11735607_a_at) / Fold change (ACY-1035/veh), C12orf56 (ProbeSet 11735607_a_at) / Fold change (Aza/veh), FGFR1OP (ProbeSet 11751329_s_at) / Fold change (ACY-1035/veh), FGFR1OP (ProbeSet 11751329_s_at) / Fold change (Aza/veh), VPS36 (ProbeSet 11739960_a_at) / Fold change (ACY-1035/veh), VPS36 (ProbeSet 11739960_a_at) / RFU SYPL1 (11715823_x_at) / Fold change /veh SYPL1 (11715823_x_at) / RFU IGFBP7 (11715501_s_at) / Fold change /veh IGFBP7 (11715501_s_at) / RFU REEP3 (11722064_at) / Fold change /veh REEP3 (11722064_at) / RFU IGLL1 (11728026_x_at) / Fold change /veh IGLL1 (11728026_x_at): dose or concentration left out as unconfirmed. The settings on record: MV-4-11 cells, 48 hours.

As to `Nc1ccc(-c2cccs2)cc1NC(=O)c1ccc2c(c1)cc(C1CC1)n2CCN1CCOCC1` [ACY-1035], the “RFU FAM26E (11764081_at)” value stood at 5.59 RFU.

(Values after article PMC5218480 (PLoS ONE, 2017).)
